Assays:
[1] = system: hPSC-derived neural tube (neural folding morphogenesis); assay: Modeling neural tube defects in the stem-cell derived neural tube morphogenesis system; assay type: cell-based, human; conditions: for neural apical curvature / neural tissue morphology (thickness, hinges): treated samples vs control samples, ROCK inhibitor 10 μM day 5-8
Experimental: Because animal models are limited in their capacity to explain how human genetics affects neural tube closure, it was tested whether the reproducible human stem-cell system could be used to model neural tube defects (NTDs). This example focuses on various compounds that induce NTDs: ROCK inhibitor, novobiocin, and valproic acid (FIG. 24). […] In turn, ROCK upregulates apical actomyosin contractility in neural cells which leads to apical constriction of the neural plate. Neural plate contraction then drives neural folding. It was thus set out to determine whether apical contractility plays a role during in vitro neural folding. […] The formation of an actomyosin gradient is followed by apical neural contraction which leads to folding.
To perturb ROCK/Shroom3 signaling and apical neural contractility a highly specific molecular inhibitor of ROCK (Y-27632) was applied. […] The effects of novobiocin and valproic acid were also examined. […] It was further concluded that the in vitro lumen model system is suitable for studying how abnormalities in signaling pathways lead to neural tube defects in a human genetic context.
Day 1. Seeding onto micropatterns. hPSCs are released from well-plate surfaces using non-enzymatic agitation following manufacturer's instructions (ReleSR, STEMCELL Technologies, Cambridge, MA). Cells are resuspended as a single-cell suspension at densities of 750K-1M cells/mL in mTeSR1 containing 10 μM ROCK inhibitor Y27632 (Abcam, Cambridge, UK). 200 μL of cell suspension is then pipetted onto prepatterned dishes and allowed to settle for 15 minutes before adding 1 mL of mTeSR1 and allowing cells to settle for 10 additional minutes. Excess media is aspirated, leaving enough liquid to cover patterns and replaced with fresh 2 mL of mTeSR until the following day.
Day 2. Matrigel addition. mTESR1 media is exchanged with a neural induction media containing Matrigel (4%, v/v). Neural induction media is supplemented with 5 μM of TGFβ-inhibitor SB-431542.
Day 3-4. Lumen Formation. Dishes are left unperturbed at day 3 to allow transition into 3D stem-cell tissue containing a single lumen.
Day 5-9. Exposure to Morphogens. Neural induction media is supplemented with 5 ng/ml BMP4 in addition to 5 μM of SB-431542. Media is exchanged daily. Cell fates are observed on day 6 and folding is observed during days 7-9.
All samples were fixed, immunostained and imaged as whole mounts in the culture dish. Samples are fixed in 4% PFA, 1 hr at room temperature (RT), washed three times for 15 min in PBS, and permeabilized in 1.5% Triton-PBS over-night (o/n) at 4 C. The following day, samples are washed in 0.3% Triton, and blocked for 2 hrs RT (10% NGS, 1% BSA, 0.3% Triton-X in PBS). Primary antibodies are used at 1:100-1:200 in blocking solution o/n at 4° C. Next, samples are washed in 0.1% Tween in PBS, and incubated with secondary antibodies 1:500-1:1000 in PBT o/n at 4° C. DAPI and phalloidin are also added at this stage. Finally, samples are washed in PBS for 1 hr, and imaged.
ROCK inhibition is achieved using the small molecule Y-27632 reconstituted in water at a stock concentration of 10 mM. ROCK inhibitor was applied at a concentration of 10 μM (1:1000 dilution) at day 5, together with BMP, and maintained for 72 hrs until the end of the experiment at day 8. Media was changed daily. Control experiments were carried under identical conditions, adding water instead of ROCK inhibitor.

[2] = system: 3D hPSC; assay: BMP4 exposure of micropatterned 3D hPSC without neural induction (immunostaining, qPCR); assay type: cell-based, human
Excerpt: FIG. 9 provides a schematic representing in vitro morphogenesis in three differentiation protocols in accordance with embodiments. (i) Exposure to BMP, without neural induction, results in an amnion-like tissue containing cells from three germ layers without formation of a neural fold. (ii) Neural tube morphogenesis is observed when neural induction is followed by exposure to BMP4. (iii) Homogenous expression of forebrain markers is observed under exposure to neural induction without BMP.
FIG. 10 provides a schematic and results of the experimental timeline for three protocols detailed in FIG. 9. (B) Experimental timeline for the three protocols. Neural induction media includes N2 supplement and TGFβ inhibitor SB-431542 (SB). (C) Vertical sections of immunostained samples from the three differentiation protocols.
FIG. 19 provides a schematic, images, and bar graph of cellular differentiation in the absences of neural induction in which no neural folding is observed, in accordance with embodiments. (A) Experimental timeline for BMP4 exposure without neural induction. (B) Bright field images showing development over 3 days. At day 4, cells migrate away from the micropatterned area. (C) Horizonal and (D) vertical sections of samples at day 3. Micropattern diameter is indicated in microns. Cells close to the glass express mesendoderm markers Brachyury (BRA) and SOX17. In 450 μm patterns, SOX2 is observed at the center of the tissue. Cells at the colony edges and at the top express amniotic ectoderm marker CDX2. A single lumen is maintained and no spontaneous folding is observed. (E) qPCR analysis for differentiation markers as a function of BMP concentration. BMP results in upregulation of the WNT and NODAL pathways, upregulation of mesendoderm markers EOMES/Brachyury/SOX17, amniotic ectoderm marker GATA3, downregulation of ectoderm marker SOX2 and pluripotency marker NANOG. Scale bar 50 μm unless indicated otherwise.
The system was next applied to study which tissues contribute to neural folding. This question has been studied for over a century in animal models, and multiple hypothesis have been developed regarding the mechanical role of the neural tissue, neighboring surface ectoderm and underlying mesoderm. However, the limited accessibility in utero led to inconclusive and often contradictive results. The in vitro system allows to systemically control tissue composition through the choice of small molecules in the culture media (FIGS. 9 & 10). This system allows discernment of the tissues which are necessary and sufficient for neural tube morphogens. […] Mesoderm fates are suppressed by TGFβ inhibition, and only appear if the period of TGFβ inhibition is decreased (FIG. 17). […] It was next examined whether the non-neural ectoderm is required for folding. […]

[3] = ROCK inhibition, Y-27632 10 μM day 5-8, vs control
[4] = as a function of BMP concentration, no neural induction

Compound	Shroom3 and F-actin localization to the apical neural surface [1, 3]	actin localization to the basal surface of epidermal/neural tissues and the epidermal apical surface [1, 3]	neural folding morphology ([1]; Y-27632 10 μM applied at day 5 together with BMP, maintained 72 hrs until day 8, vs control (water))	neural apical curvature [1]	neural tissue morphology (thickness, hinges) [1]	cell fates and folding morphogenesis ([2]; addition of BMP4 without neural induction)	qPCR: WNT and NODAL pathways [2, 4]	qPCR: ectoderm marker SOX2 and pluripotency marker NANOG [2, 4]	qPCR: mesendoderm markers EOMES/Brachyury/SOX17, amniotic ectoderm marker GATA3 [2, 4]
C[C@@H](N)[C@H]1CC[C@H](C(=O)Nc2ccncc2)CC1 [Y-27632]	disrupted	not significantly perturbed	severe folding defects similar to the open book morphology observed in embryonic cranial NTDs	significantly less curved than control samples	thick and flat neural tissue, which lacks neural hinges				
CO[C@@H]1[C@@H](OC(N)=O)[C@@H](O)[C@H](Oc2ccc3c(O)c(NC(=O)c4ccc(O)c(CC=C(C)C)c4)c(=O)oc3c2C)OC1(C)C [novobiocin]				significantly less curved than control samples	thick and flat neural tissue, which lacks neural hinges				
CCCC(CCC)C(=O)O [valproic acid]				significantly less curved than control samples	thick and flat neural tissue, which lacks neural hinges				
BMP4: bone morphogenetic protein 4, morphogen						mesoderm and ectoderm cell fates, but lack neural tissue and does not exhibit folding	upregulation	downregulation	upregulation
